Experimental data published in PubChem BioAssay (NCI).
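Here, GI50 denotes the concentration required for 50% inhibition of growth. At the TGI there is no net growth.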

What was measured:
Test in all cases: NCI anticancer screen, dose series, 384-well format
TK-10 renal = test system: TK-10 renal
SF-268 CNS = test system: SF-268 CNS
SK-MEL-5 melanoma = test system: SK-MEL-5 melanoma
HT29 colon = test system: HT29 colon
SF-539 CNS = test system: SF-539 CNS
OVCAR-8 ovarian = test system: OVCAR-8 ovarian
T-47D breast = test system: T-47D breast
RPMI-8226 leukemia = test system: RPMI-8226 leukemia
A498 renal = test system: A498 renal
CCRF-CEM leukemia = test system: CCRF-CEM leukemia
PC-3 prostate = test system: PC-3 prostate
NCI/ADR-RES ovarian = test system: NCI/ADR-RES ovarian
HOP-62 NSCLC = test system: HOP-62 NSCLC
A549 NSCLC = test system: A549 NSCLC
MOLT-4 leukemia = test system: MOLT-4 leukemia
NCI-H322M lung = test system: NCI-H322M lung
EKVX NSCLC = test system: EKVX NSCLC
SR leukemia = test system: SR leukemia
OVCAR-3 ovarian = test system: OVCAR-3 ovarian
SNB-19 CNS = test system: SNB-19 CNS
NCI-H226 lung = test system: NCI-H226 lung
U251 glioblastoma = test system: U251 glioblastoma
MALME-3M melanoma = test system: MALME-3M melanoma
DU-145 prostate = test system: DU-145 prostate
CAKI-1 renal = test system: CAKI-1 renal
HCT-15 colon = test system: HCT-15 colon
UACC-257 melanoma = test system: UACC-257 melanoma
M14 melanoma = test system: M14 melanoma

## CNC(=O)c1ccc2cc(C3(O)CCn4cncc43)ccc2c1 (stereo unspecified)
TK-10 renal
  GI50: > 100 µM
  TGI: > 100 µM
SF-268 CNS
  GI50: > 100 µM
  TGI: > 100 µM
SK-MEL-5 melanoma
  GI50: > 100 µM
  TGI: > 100 µM
HT29 colon
  GI50: > 100 µM
  TGI: > 100 µM
SF-539 CNS
  GI50: > 100 µM
  TGI: > 100 µM
OVCAR-8 ovarian
  GI50: > 100 µM
  TGI: > 100 µM
T-47D breast
  GI50: > 100 µM
  TGI: > 100 µM
RPMI-8226 leukemia
  GI50: > 100 µM
  TGI: > 100 µM
A498 renal
  GI50: > 100 µM
  TGI: > 100 µM
CCRF-CEM leukemia
  GI50: > 100 µM
  TGI: > 100 µM
PC-3 prostate
  GI50: > 100 µM
  TGI: > 100 µM
NCI/ADR-RES ovarian
  GI50: > 100 µM
  TGI: > 100 µM
HOP-62 NSCLC
  GI50: > 100 µM
  TGI: > 100 µM
A549 NSCLC
  GI50: > 100 µM
  TGI: > 100 µM
MOLT-4 leukemia
  GI50: > 100 µM
  TGI: > 100 µM
NCI-H322M lung
  GI50: > 100 µM
  TGI: > 100 µM
EKVX NSCLC
  GI50: > 100 µM
  TGI: > 100 µM
SR leukemia
  GI50: > 100 µM
  TGI: > 100 µM
OVCAR-3 ovarian
  GI50: > 100 µM
  TGI: > 100 µM
SNB-19 CNS
  GI50: > 100 µM
  TGI: > 100 µM
NCI-H226 lung
  GI50: > 100 µM
  TGI: > 100 µM
U251 glioblastoma
  GI50: > 100 µM
  TGI: > 100 µM
MALME-3M melanoma
  GI50: > 100 µM
  TGI: > 100 µM
DU-145 prostate
  GI50: > 100 µM
  TGI: > 100 µM
CAKI-1 renal
  GI50: > 100 µM
  TGI: > 100 µM
HCT-15 colon
  GI50: > 100 µM
  TGI: > 100 µM
UACC-257 melanoma
  GI50: > 100 µM
  TGI: > 100 µM
M14 melanoma
  GI50: > 100 µM
  TGI: > 100 µM
